Source: patent US12297293B2, “Peptide compounds targeting PD-1 receptor as well as preparation and applications thereof” (NANTONG UNIVERSITY, priority 2021, dated 2025)
Ends that are not written are not given here.

Assays:
DRG neurons = assay: DRG neuronal calcium imaging experiment; format: cell-based, ICR mice; conditions: DRG neurons pretreated with 1 nM; high K+ solution; Fluo-4/AM, laser confocal
Source text: The inhibitory effect of compounds 1-5 on pain signaling was characterized by DRG neuronal calcium imaging, comprising the following steps:
performing acute isolation on 3-week-old female ICR mice, and extracting DRG in a sterile bench; lysing sequentially by collagenase A and trypsin; terminating trypsin lysis with a complete medium containing serum; centrifuging at 800r, discarding supernatant, and adding Neurobasal medium (containing 2% B27, Clutanine 1%, and 1% penicillin-streptomycin double antibody solution) and thoroughly mixing; then culturing in pre-prepared Petri dishes lined with PDL for 48 h; labeling DRG neurons with Flou-4/AM prior to the experiment, and pre-treating with different doses of the compounds 1-5/equivalent volume of HBSS before stimulating the DRG neurons with high K+ solution; and then detecting changes of intracellular free calcium ion concentration of DRG neurons under laser confocal.

[1] = tested on: formalin-induced inflammatory pain; assay: Formalin-induced inflammatory pain test; format: in vivo, ICR male mice
Experimental: According to the present invention, placing ICR male mice in a weight range of 25-30 g in an observation room for 15 min, and injecting intrathecally with different doses of the compound 4 (5 nmol, 10 nmol, 30 nmol) or saline; after 5 min, injecting subcutaneously with 5% formalin (20 μl) through the plantar surface of the foot, and then immediately sending to the observation room; counting an accumulated time of pain behaviors (licking, biting, and flinging the injected foot) during the time period of 0-10 min and 10-45 min, respectively.
0-10 min after formalin injection is a phase I, which is mainly triggered by direct activation of injurious neurons; and 10-35 min is phase II, which is mainly triggered by formalin-induced inflammatory response.

[2] = tested on: acetic acid-induced visceral pain; assay: Acetic acid-induced visceral pain (writhing) test; format: in vivo, ICR male mice
Experimental: According to the present invention, placing ICR male mice in a weight range of 25-30 g in an observation room for 15 min, and injecting intrathecally with different doses of the compound 4 (5 nmol, 10 nmol, 30 nmol) or saline; after 5 min, injecting intraperitoneally with 0.6% glacial acetic acid solution (10 mL/kg), and then sending to the observation room; counting the number of body writhing within 20 min.
The experimental results are shown in FIG. 4, the number of writhing in mice decreased with the increase of the administered dose. […] Intrathecally injected at a dose of 30 nmol, the compound 4 inhibited the writhing behavior of mice by 63%.

## SYGGADYKR [compound 4]
DRG neurons
  inhibitory effect on the increase of intracellular Ca2+ concentration induced by high K+: significant inhibitory effect
[1]; intrathecal 5, 10, 30 nmol, 5% formalin 20 μl plantar, phase I and phase II, vs control group
  pain behavior (licking, biting and flinging the injected foot) in both phases: significantly shortened
[1]; intrathecal injection, formalin phase II
  ED50 (median effective dose) for pain in phase II: 6.28 (5.34-7.39) nmol
[2]; intrathecal 5, 10, 30 nmol, 0.6% acetic acid i.p. 10 mL/kg, writhing within 20 min
  number of abdominal writhing: significantly reduce the number of abdominal writhing in mice in a dose-dependent manner
[2]; intrathecal dose of 30 nmol
  inhibition of writhing behavior: 63%
[2]; intrathecal injection, acetic acid writhing
  ED50: 13.5 (11.88-15.34) nmol
